# Assay results reported in patent US8545851B2, “Composition for improving inflammatory disease using ABH antigens” (SNU R&DB Foundation, priority 2009, dated 2013).
# System: B antigen expression in HaCaT cells harboring B antigen
# Assay: Effect of ABH antigen-constituting monosaccharides and mixtures on B antigen expression, Western blotting
# Format: cell-based
# Conditions: HaCaT cells, 0.1, 1 and 10 μM, 24 hours
# Description: HaCaT cells harboring B antigen was treated respectively with FGG and FGGN mixture and FG (Fucose:Galactose=1:1, H-antigen composition) mixture which compose A, B, and H antigen, and also glucose, galactose, fucose, N-acetylgalactosamine and N-acetylglucosamine which are monosaccharides that constitute A, B, and H antigen at different concentrations of 0.1, 1, and 10 μM for 24 hours. Western blotting was performed to investigate the expression of B antigen. As a result, the expression of B antigen was increased in every case above (FIG. 9).
row,Structure (SMILES),expression of B antigen
1,CC(=O)N[C@H]1C(O)O[C@H](CO)[C@H](O)[C@@H]1O (stereo partly shown) [N-acetylgalactosamine],increased
2,CC(=O)N[C@H]1C(O)O[C@H](CO)[C@@H](O)[C@@H]1O (stereo partly shown) [N-acetylglucosamine],increased
3,C[C@H](O)[C@@H](O)[C@@H](O)[C@H](O)C=O [fucose],increased
4,O=C[C@H](O)[C@@H](O)[C@@H](O)[C@H](O)CO [galactose],increased
